In patent publication US20240252651A1, “METHOD OF DELIVERING NUCLEIC ACIDS INTO CELLS” (GUANGZHOU LIDE BIOMEDICINE TECHNOLOGY CO., LTD., priority 2021, published 2024):
Entries after “also recorded” stand apart in the source; their conditions may differ.

Tests used:
[1] = tested on: Hela cells; assay: Transfection of GFP-expressing plasmid DNA in Hela cells (flow cytometer); assay type: cell-based, human; settings: plasmid DNA 0.5 μg/well, material 0.25 to 8 μg/well (dosages per FIG. 4), 24 h
Method: In this experiment, with GFP-expressing plasmid DNA as a reporter gene, a gene transfection efficiency of a cationic lipid analog material in Hela cells was detected. A specific method was as follows:
Hela cells were inoculated in a 24-well plate and cultured in an incubator for 12 h; each of different cationic lipid analog materials (0.25 μg/well to 8 μg/well) was mixed with GFP-expressing plasmid DNA (0.5 μg/well) in 40 μL of a sodium acetate buffer (25 mM, pH 5.2), and resulting mixtures each were allowed to stand for 10 min and then diluted with 460 μL of an Opti-MEM medium to obtain plasmid DNA-loaded cationic lipid analog complex particle solutions; a medium for the Hela cells in the plate was removed, then the HeLa cells were washed once with PBS, and the complex particle solutions were added; and the cells were cultured for 24 h, and then a plasmid DNA transfection efficiency in cells was analyzed by a flow cytometer. A commercial gene transfection reagent Lipofectamine 2000 was adopted as a positive control.

[2] = tested on: Hela cells; assay: Transfection of luciferase-expressing plasmid DNA in HeLa cells (luciferase expression); assay type: cell-based, human; settings: plasmid DNA 0.5 μg, 24 h, luciferase expression level, FIG. 5
Method: In this example, with luciferase-expressing plasmid DNA as a reporter gene, a gene transfection efficiency of a cationic lipid analog material in HeLa cells was detected. A specific operation method was as follows: Hela cells were inoculated in a 96-well plate and cultured in an incubator for 12 h; each of different cationic lipid analog materials was mixed with luciferase-expressing plasmid DNA (0.5 μg) in 40 μL of a sodium acetate buffer (25 mM, pH 5.2), and resulting mixtures each were allowed to stand for 10 min and then diluted with 460 μL of an Opti-MEM medium to obtain plasmid DNA-loaded cationic lipid analog complex particle solutions; a medium for the Hela cells in the plate was removed, then the Hela cells were washed once with PBS, and the complex particle solutions were added in a volume of 125 μL; the cells were cultured for 24 h, then a resulting culture supernatant was discarded, and the cells were fully lysed; and a substrate was added at 50 μl/well, and an expression level of luciferase was detected by a multi-mode microplate reader.

[3] = tested on: DC 2.4 cells; assay: Transfection of eGFP-mRNA in DC 2.4 cells (FCM and LSCM); assay type: cell-based, mouse; settings: mRNA 0.2 μg/well, material 0.25 to 2 μg/well (dosages per FIG. 7), 24 h
Method: In this experiment, with eGFP-mRNA as model mRNA, an mRNA transfection efficiency of a cationic lipid analog material in DC 2.4 cells was detected. A specific operation method was as follows:
DC 2.4 cells were inoculated in a 48-well plate and cultured in an incubator for 12 h; each of different cationic lipid analog materials (0.25 μg/well to 2 μg/well) was mixed with cGFP-expressing mRNA (0.2 μg/well) in 20 μL of a sodium acetate buffer (25 mM, pH 5.2), and resulting mixtures each were allowed to stand for 10 min and then diluted with 230 μL of a Opti-MEM medium to obtain mRNA-loaded complex particle solutions; a medium for the […] were washed once with PBS, and the complex particle solutions were added; and the cells were cultured for 24 h, an mRNA transfection efficiency in cells was observed by FCM and LSCM. A commercial gene transfection reagent Lipofectamine 2000 was adopted as a positive control.

Row | Compound | transfection efficiency of GFP-expressing plasmid DNA, compared with commercial transfection reagent Lipofectamine 2000 [1] | mRNA transfection efficiency (eGFP-mRNA), compared with Lipofectamine 2000 ([3]; FIG. 7-9) | further results
1 | CCCCCCCCCCCCCCCC(=O)N(CCCN(CC)CC)C(C(=O)NCCOCCOCCNC(=O)C(C(C)C)N(CCCN(CC)CC)C(=O)CCCCCCCCCCCCCCC)C(C)C (stereo not shown) [I2R3C16A1] | reaches or is higher than; also recorded: equivalent to or higher than | high transfection efficiency; also recorded: equivalent to or higher than | transfection efficiency of luciferase-expressing plasmid DNA, compared with Lipofectamine 2000 [2]: equivalent to or higher than
2 | CCCCCCCCCCCCCCCC(=O)N(CCN(C)C)C(C(=O)NCCOCCOCCNC(=O)C(C(C)C)N(CCN(C)C)C(=O)CCCCCCCCCCCCCCC)C(C)C (stereo not shown) [I2R1C16A1] | reaches or is higher than; also recorded: equivalent to or higher than | high transfection efficiency; also recorded: equivalent to or higher than | transfection efficiency of luciferase-expressing plasmid DNA, compared with Lipofectamine 2000 [2]: equivalent to or higher than
3 | CCCCCCCCCCCCCC(=O)N(CCCN(CC)CC)C(C(=O)NCCOCCOCCNC(=O)C(C(C)C)N(CCCN(CC)CC)C(=O)CCCCCCCCCCCCC)C(C)C (stereo not shown) [I2R3C14A1] | – | high transfection efficiency; also recorded: equivalent to or higher than | –
4 | CCCCCCCCCCCCCC(=O)N(CCCN(C)C)C(C(=O)NCCOCCOCCNC(=O)C(C(C)C)N(CCCN(C)C)C(=O)CCCCCCCCCCCCC)C(C)C (stereo not shown) [I2R2C14A1] | reaches or is higher than; also recorded: equivalent to or higher than | high transfection efficiency; also recorded: equivalent to or higher than | –
5 | CCCCCCCCCCCCCCCC(=O)N(CCC1CCCN1C)C(C(=O)NCCCCCCNC(=O)C(C(C)C)N(CCC1CCCN1C)C(=O)CCCCCCCCCCCCCCC)C(C)C (stereo not shown) [I1R11C16A1] | – | high transfection efficiency; also recorded: equivalent to or higher than | –
6 | CCCCC/C=C\C/C=C\CCCCCCCC(=O)N(CCN(C)C)C(C(=O)NCCOCCOCCNC(=O)C(C(C)C)N(CCN(C)C)C(=O)CCCCCCC/C=C\C/C=C\CCCCC)C(C)C (stereo not shown) [I2R1C18-2A1] | reaches or is higher than; also recorded: equivalent to or higher than | – | –
7 | CCCCCCCC/C=C\CCCCCCCC(=O)N(CCCN(C)C)C(C(=O)NCCCCCCNC(=O)C(C(C)C)N(CCCN(C)C)C(=O)CCCCCCC/C=C\CCCCCCCC)C(C)C (stereo not shown) [I1R2C18-1A1] | – | – | mRNA transfection efficiency (eGFP-mRNA), compared with Lipofectamine 2000 ([3]; FIG. 7-9, listed as 11R2C18-1A1): high transfection efficiency; also recorded: equivalent to or higher than
8 | CCCCC/C=C\C/C=C\CCCCCCCC(=O)N(CCC1CCCN1C)C(C(=O)NCCOCCOCCNC(=O)C(C(C)C)N(CCC1CCCN1C)C(=O)CCCCCCC/C=C\C/C=C\CCCCC)C(C)C (stereo not shown) [I2R11C18-2A1] | reaches or is higher than; also recorded: equivalent to or higher than | high transfection efficiency; also recorded: equivalent to or higher than | transfection efficiency of luciferase-expressing plasmid DNA, compared with Lipofectamine 2000 [2]: equivalent to or higher than
9 | CCCCCCCCCCCCCC(=O)N(CCC1CCCN1C)C(C(=O)NCCCCCCNC(=O)C(C(C)C)N(CCC1CCCN1C)C(=O)CCCCCCCCCCCCC)C(C)C (stereo not shown) [I1R11C14A1] | reaches or is higher than | high transfection efficiency; also recorded: equivalent to or higher than | transfection efficiency of GFP-expressing plasmid DNA, compared with commercial transfection reagent Lipofectamine 2000 ([1]; listed as 11R11C14A1): equivalent to or higher than; transfection efficiency of luciferase-expressing plasmid DNA, compared with Lipofectamine 2000 [2]: equivalent to or higher than
10 | CCCCCCCCCCCCCCCCCC(=O)N(CCC1CCCN1C)C(C(=O)NCCCCCCNC(=O)C(C(C)C)N(CCC1CCCN1C)C(=O)CCCCCCCCCCCCCCCCC)C(C)C (stereo not shown) [I1R11C18A1] | – | – | mRNA transfection efficiency (eGFP-mRNA), compared with Lipofectamine 2000 ([3]; FIG. 7-9, listed as 11R11C18A1): high transfection efficiency; also recorded: equivalent to or higher than
11 | CCCCCCCCCCCCCCCCCC(=O)N(CCCN(CC)CC)C(C(=O)NCCOCCOCCNC(=O)C(C(C)C)N(CCCN(CC)CC)C(=O)CCCCCCCCCCCCCCCCC)C(C)C (stereo not shown) [I2R3C18A1] | reaches or is higher than; also recorded: equivalent to or higher than | high transfection efficiency; also recorded: equivalent to or higher than | transfection efficiency of luciferase-expressing plasmid DNA, compared with Lipofectamine 2000 [2]: equivalent to or higher than
12 | CCCCCCCC/C=C\CCCCCCCC(=O)N(CCC1CCCN1C)C(C(=O)NCCOCCOCCNC(=O)C(C(C)C)N(CCC1CCCN1C)C(=O)CCCCCCC/C=C\CCCCCCCC)C(C)C (stereo not shown) [I2R11C18-1A1] | reaches or is higher than; also recorded: equivalent to or higher than | high transfection efficiency; also recorded: equivalent to or higher than | –
13 | CCCCC/C=C\C/C=C\CCCCCCCC(=O)N(CCCN(C)C)C(C(=O)NCCCCCCNC(=O)C(C(C)C)N(CCCN(C)C)C(=O)CCCCCCC/C=C\C/C=C\CCCCC)C(C)C (stereo not shown) [I1R2C18-2A1] | reaches or is higher than | equivalent to or higher than | transfection efficiency of GFP-expressing plasmid DNA, compared with commercial transfection reagent Lipofectamine 2000 ([1]; listed as 11R2C18-2A1): equivalent to or higher than; mRNA transfection efficiency (eGFP-mRNA), compared with Lipofectamine 2000 ([3]; FIG. 7-9, listed as 11R2C18-2A1): high transfection efficiency
14 | CCCCCCCCCCCCCCCC(=O)N(CCC1CCCN1C)C(C(=O)NCCOCCOCCNC(=O)C(C(C)C)N(CCC1CCCN1C)C(=O)CCCCCCCCCCCCCCC)C(C)C (stereo not shown) [I2R11C16A1] | reaches or is higher than; also recorded: equivalent to or higher than | high transfection efficiency; also recorded: equivalent to or higher than | –
15 | CCCCCCCCCCCCCCCCCC(=O)N(CCCN(C)C)C(C(=O)NCCCCCCNC(=O)C(C(C)C)N(CCCN(C)C)C(=O)CCCCCCCCCCCCCCCCC)C(C)C (stereo not shown) [I1R2C18A1] | – | – | mRNA transfection efficiency (eGFP-mRNA), compared with Lipofectamine 2000 ([3]; FIG. 7-9, listed as 11R2C18A1): high transfection efficiency; also recorded: equivalent to or higher than
16 | CCCCCCCCCCCCCCCCCC(=O)N(CCC1CCCN1C)C(C(=O)NCCOCCOCCNC(=O)C(C(C)C)N(CCC1CCCN1C)C(=O)CCCCCCCCCCCCCCCCC)C(C)C (stereo not shown) [I2R11C18A1] | reaches or is higher than; also recorded: equivalent to or higher than | high transfection efficiency; also recorded: equivalent to or higher than | –
17 | CCCCCCCCCCCCCC(=O)N(CCC1CCCN1C)C(C(=O)NCCOCCOCCNC(=O)C(C(C)C)N(CCC1CCCN1C)C(=O)CCCCCCCCCCCCC)C(C)C (stereo not shown) [I2R11C14A1] | reaches or is higher than; also recorded: equivalent to or higher than | high transfection efficiency; also recorded: equivalent to or higher than | –
18 | CCCCCCCCCCCCCCCC(=O)N(CCCN(C)C)C(C(=O)NCCCCCCNC(=O)C(C(C)C)N(CCCN(C)C)C(=O)CCCCCCCCCCCCCCC)C(C)C (stereo not shown) [I1R2C16A1] | – | – | mRNA transfection efficiency (eGFP-mRNA), compared with Lipofectamine 2000 ([3]; FIG. 7-9, listed as 11R2C16A1): high transfection efficiency; also recorded: equivalent to or higher than
